Patent US8206732B2, “Pyrithione biocides enhanced by silver, copper, or zinc ions” (Arch Chemicals, Inc., priority 1999, dated 2012)
“And” between values parts separate entries of the source, which are not always exact repeats. Equal entries are not always repeated. One block for each compound: values may come before it.

Experiments:
[1] = tested on: Staphylococcus aureus 27217; test: Checkerboard MIC test, pyrithiones with silver salts; type: cell-based; details: silver ion alone or in the inhibitory mixture; TSB pH 7.3, 35° C., 1 to 2 days
[2] = tested on: Pseudomonas aeruginosa NCIMB 6749; test: Zone of inhibition test (paper disc on TSA); type: cell-based; details: 6.5 mm discs; 0.135% pyrithione, 0.1% ZnCl2 or both; 28° C., 24 hr
[3] = tested on: Staphylococcus aureus ATCC 27217; test: Zone of inhibition test (paper disc on TSA); type: cell-based; details: 6.5 mm discs; 0.135% pyrithione, 0.1% ZnCl2 or both; 28° C., 24 hr
[4] = tested on: Escherichia coli ATCC 10536; test: Zone of inhibition test (paper disc on TSA); type: cell-based; details: 6.5 mm discs; 0.135% pyrithione, 0.1% ZnCl2 or both; 28° C., 24 hr
[5] = tested on: Ps. aeruginosa ATCC 9027; test: Checkerboard MIC test, pyrithiones with zinc salts; type: cell-based, Pseudomonas aeruginosa; details: Zn(II) from ZnO, alone or in the inhibitory mixture; TSB, 28 C, 3 days
[6] = tested on: Aspergillus niger ATCC 6275; test: Checkerboard MIC test, pyrithiones with zinc salts; type: cell-based; details: Zn(II) from ZnO, alone or in the inhibitory mixture; TSB, 28 C, 5 days
[7] = tested on: Staphylococcus aureus ATCC 27217; test: Checkerboard MIC test, pyrithiones with zinc salts; type: cell-based; details: TSB, 28 C, 3 days
[8] = tested on: Fusarium sp.; test: Checkerboard MIC test, pyrithiones with zinc salts; type: cell-based; details: TSB, 28 C, 5 days
Method: Mixtures of pyrithione and zinc or silver in various proportions were tested for relative efficacy by a modification of the procedure described by Dougherty, et al.
Equal volumes of bacteria (10^6 cells/ml) or fungi (10^5 spores/ml) were added to each microtiter plate well. The plates were incubated at 28 C for 3 days (bacteria) or 5 days (fungi), and the minimum inhibitory concentration (MIC) of biocide was determined. The Fractional Inhibitory Concentration (FIC=concentration of biocide in an inhibitory mixture divided by the MIC of the pure biocide) was determined, and the FIC Index (sum of the two FIC's) was calculated. The type of interaction was categorized according to the magnitude of the Index: Synergistic (<1), Additive (1), or Antagonistic (>1).

[9] = tested on: Pseudomonas aeruginosa NCIMB 6749; test: Checkerboard MIC test, pyrithiones with zinc salts; type: cell-based; details: TSB, 28 C, 3 days
[10] = tested on: two cultures of fungi; test: Challenge test in soluble oil metalworking fluid, fungi (Example 6); type: cell-based; details: soluble oil MWF, 10 ppm Zn, 100 ppm NaPT, 50 ppm ZPT or 50 ppm CuPT as in column head
[11] = tested on: Aspergillus niger ATCC 6275; test: MIC in Tryptic Soy Broth, microtiter (Example 1); type: cell-based
[12] = tested on: seven cultures of bacteria; test: Challenge test in soluble oil metalworking fluid, bacteria (Example 6); type: cell-based; details: soluble oil MWF, 10 ppm Zn, 100 ppm NaPT, 50 ppm ZPT or 50 ppm CuPT as in column head
[13] = tested on: Pseudomonas aeruginosa ATCC 9027; test: MIC in Tryptic Soy Broth, microtiter (Example 1); type: cell-based; details: TSB, 28° C., incubated 5-6 days; single agent (NaPT without Cu)
[14] = tested on: Fusarium sp. and Cephalosporium sp.; test: Various mixtures of NaPT and Zn(II) against fungi in 5% metalworking fluid (Example 8, Table 10b); type: cell-based
[15] = tested on: Fusarium sp. free-living cells; test: Viable free-living cells in bulk metalworking fluid (Example 5); type: cell-based; details: 100 PPM NaPT, 10 PPM Zn (II) or both, 4 days after treatment
Method: (§1) Experiments were conducted to investigate the efficacy of the composition of the present invention to inhibit the survival, growth, and proliferation of free-living and biofilm populations of bacteria and fungi in metalworking fluids. […] Metalworking fluids (MWF) employed included 5% soluble oil MWF, 5% semi-synthetic MWF, or 5% synthetic MWS. For testing against bacteria, metalworking fluids were supplemented with 2% (weight-to-weight ratio (w:w)) of 5 g/L yeast extract (Difco), Metalworking fluids were supplemented with 2% (weight-to-weight (w:w)) of Tryptic Soy Broth (Difco) for fungal tests.
(§2) For each experiment, three ml of a 5% metalworking fluid was added to each of twelve, sterile, 16 mm×150 mm glass culture tubes. […] Fusarium sp. was added to the tubes to final concentrations of 10^5 spores/ml for the fungal tests. Tubes incubated for 3 days at 28° C. and 180 rpms.
(§3) After the treatments additions were performed, the culture tubes resumed incubation at 28° C., 180 rpms for an additional 4 days.
(§4) After 4 days, culture tubes were removed from the incubator and viable counts of organisms from the bulk MWF fluid and the biofilm were determined using serial dilution and drop plating techniques. For biofilms, polycarbonate discs were removed from tubes, dip-rinsed in three successive washes of de-ionized water to remove loosely attached cells, and transferred to 25 mm×150 mm culture tubes containing 10 ml of sterile, de-ionized water. Biofilms were removed from discs and resuspended by vortexing tubes for 30 seconds. Bacteria were plated on to R2A Agar plates and incubated at 37° C. Fungi were plated onto Malt Agar plates and incubated at 28° C. Mean colony forming units per ml (for bulk) and per square cm (cm^2) biofilm were determined for each experimental treatment.

[16] = tested on: E. coli 8739 biofilm; test: Viable biofilm cells on discs in metalworking fluid (Example 5); type: cell-based, Escherichia coli; details: 10% TSB, polycarbonate disc; 100 PPM NaPT, 10 PPM Zn (II) or both; 4 days after treatment
[17] = tested on: mixed bacteria (Pseudomonas aeruginosa 9027, Escherichia coli 8739, Pseudomonas fluorescens 12201, Pseudomonas rubescens 12202, Pseudomonas putida); test: Various mixtures of NaPT and Zn(II) against bacteria in 5% metalworking fluid (Example 8, Table 10a); type: cell-based, Pseudomonas spp.
[18] = tested on: E. coli 8739 free-living cells; test: Viable free-living cells in bulk metalworking fluid (Example 5); type: cell-based, Escherichia coli; details: 10% TSB; 100 PPM NaPT, 10 PPM Zn (II) or both; 4 days after treatment
[19] = tested on: Fusarium sp. biofilm; test: Viable biofilm cells on discs in metalworking fluid (Example 5); type: cell-based; details: polycarbonate disc, 100 PPM NaPT, 10 PPM Zn (II) or both, 4 days after treatment
Method: as §1, §2, §3, §4

[20] = pyrithione alone or pyrithione concentration in the inhibitory mixture
[21] = semi-synthetic, Zn (II) 10 PPM, Day 1
[22] = semi-synthetic, Zn (II) 10 PPM, Day 2
[23] = semi-synthetic, Zn (II) 10 PPM, Day 7
[24] = semi-synthetic, Zn (II) 20 PPM, Day 1
[25] = semi-synthetic, Zn (II) 20 PPM, Day 2
[26] = semi-synthetic, Zn (II) 20 PPM, Day 7
[27] = semi-synthetic, Zn (II) 30 PPM, Day 1
[28] = semi-synthetic, Zn (II) 30 PPM, Day 2
[29] = semi-synthetic, Zn (II) 30 PPM, Day 7
[30] = semi-synthetic, Zn (II) 100 PPM, Day 1
[31] = semi-synthetic, Zn (II) 100 PPM, Day 4
[32] = semi-synthetic, Zn (II) 500 PPM, Day 1
[33] = semi-synthetic, Zn (II) 500 PPM, Day 4
[34] = synthetic, Zn (II) 10 PPM, Day 1
[35] = synthetic, Zn (II) 20 PPM, Day 1
[36] = Zn(II) alone or Zn(II) concentration in the inhibitory mixture

MIC Ag^+1 Ion [1]: 29.8 ppm
Compound: [Ag+].[Ag+].[O-2] [Ag2O]

Compound: [Cl-].[Cl-].[Zn+2] [ZnCl2]
Zone of Inhibition [2]: 0 mm
Zone of Inhibition [3]: 0 mm
Zone of Inhibition [4]: 0 mm

MIC Zn(II) [5]: >1645 ppm
MIC Zn(II) [6]: >1645 ppm
Compound: [O]=[Zn] [ZnO]

Compound: O.O.O.O=S(=O)([O-])[O-].[Mg+2].[O-][n+]1ccccc1SSc1cccc[n+]1[O-] [MDS, MgSO4.3H2O adduct of 2,2′-dithiopyridine-1,1′-dioxide]
MIC Pyrithione [7, 20]: 8 ppm
MIC Pyrithione [8, 20]: >1843 ppm
Zone of Inhibition [2]: 0 mm
MIC Pyrithione [9, 20]: 1024 ppm
Zone of Inhibition [3]: 28 mm
Zone of Inhibition [4]: 31 mm

Compound: On1ccccc1=S.On1ccccc1=S.[Cu] [CuPT2, copper pyrithione]
FUNGI (cfu/ml) ([10]; DAY 0): 2.4 × 10^5 cfu/ml
FUNGI (cfu/ml) ([10]; DAY 6): 1000 cfu/ml
FUNGI (cfu/ml) ([10]; DAY 13): 680 cfu/ml
FUNGI (cfu/ml) ([10]; DAY 20): 370 cfu/ml
molar MIC ([11]; Aspergillus niger): 51 µM
MIC ([11]; TSB, 28° C., incubated 7-8 days, single agent (NaPT without Cu)): 16 ppm
BACTERIA (cfu/ml) ([12]; DAY 0): 3.2 × 10^7 cfu/ml
BACTERIA (cfu/ml) ([12]; DAY 6): 1.5 × 10^7 cfu/ml
BACTERIA (cfu/ml) ([12]; DAY 13): 9.7 × 10^6 cfu/ml
BACTERIA (cfu/ml) ([12]; DAY 20): 1.9 × 10^6 cfu/ml
MIC [13]: >1024 ppm

Compound: O=S(=O)([O-])[O-].[Zn+2] [ZnSO4]
Fungi/ml [14, 21]: 1.0 × 10^4 Fungi/ml
Fungi/ml [14, 22]: 5.0 × 10^3 Fungi/ml
Fungi/ml [14, 23]: 4.8 × 10^2 Fungi/ml
Fungi/ml [14, 24]: 1.2 × 10^4 Fungi/ml
Fungi/ml [14, 25]: 1.6 × 10^4 Fungi/ml
Fungi/ml [14, 26]: 4.0 × 10^3 Fungi/ml
Fungi/ml [14, 27]: 1.2 × 10^4 Fungi/ml
Fungi/ml [14, 28]: 1.5 × 10^4 Fungi/ml
Fungi/ml [14, 29]: 1.3 × 10^3 Fungi/ml
Fungi/ml [14, 30]: 3.3 × 10^4 Fungi/ml
Fungi/ml [14, 31]: 1.1 × 10^4 Fungi/ml
Fungi/ml [14, 32]: 4.4 × 10^4 Fungi/ml
Fungi/ml [14, 33]: 2.0 × 10^4 Fungi/ml
Fungi/ml ([14]; semi-synthetic, Zn (II) 1000 PPM, Day 1): 4.1 × 10^4 Fungi/ml
Fungi/ml ([14]; semi-synthetic, Zn (II) 1000 PPM, Day 4): 1.0 × 10^4 Fungi/ml
Fungi/ml [14, 34]: 7.5 × 10^4 Fungi/ml
Fungi/ml ([14]; synthetic, Zn (II) 10 PPM, Day 2): 3.1 × 10^4 Fungi/ml
Fungi/ml ([14]; synthetic, Zn (II) 10 PPM, Day 7): 1.4 × 10^4 Fungi/ml
Fungi/ml [14, 35]: 3.9 × 10^4 Fungi/ml
Fungi/ml ([14]; synthetic, Zn (II) 20 PPM, Day 2): 2.2 × 10^4 Fungi/ml
Fungi/ml ([14]; synthetic, Zn (II) 20 PPM, Day 7): 1.3 × 10^4 Fungi/ml
Fungi/ml ([14]; synthetic, Zn (II) 30 PPM, Day 1): 4.2 × 10^4 Fungi/ml
Fungi/ml ([14]; synthetic, Zn (II) 30 PPM, Day 2): 2.1 × 10^4 Fungi/ml
Fungi/ml ([14]; synthetic, Zn (II) 30 PPM, Day 7): 5.0 × 10^3 Fungi/ml
Fungi/ml ([14]; synthetic, Zn (II) 100 PPM, Day 1): 2.1 × 10^4 Fungi/ml
Fungi/ml ([14]; synthetic, Zn (II) 100 PPM, Day 4): 6.0 × 10^3 Fungi/ml
Fungi/ml ([14]; synthetic, Zn (II) 500 PPM, Day 1): 9.0 × 10^3 Fungi/ml
Fungi/ml ([14]; synthetic, Zn (II) 500 PPM, Day 4): 5.0 × 10^3 Fungi/ml
Fungi/ml ([14]; synthetic, Zn (II) 1000 PPM, Day 1): 4.0 × 10^3 Fungi/ml
Fungi/ml ([14]; synthetic, Zn (II) 1000 PPM, Day 4): 2.0 × 10^3 Fungi/ml
Fungi/ml ([14]; synthetic, Zn (II) 5000 PPM, Day 1): 2.0 × 10^3 Fungi/ml
Fungi/ml ([14]; synthetic, Zn (II) 5000 PPM, Day 4): 4.0 × 10^3 Fungi/ml
viable free-living microorganisms ([15]; 5% semisynth. MWF): 4.6 × 10^5 cells/ml
viable free-living microorganisms ([15]; 5% synthetic MWF): 8.7 × 10^6 cells/ml
viable free-living microorganisms ([15]; 100% TSB): 3.4 × 10^6 cells/ml
viable biofilm microorganisms [16]: 6.5 × 10^5 cells/cm^2
Bacteria/ml [17, 21]: 170 Bacteria/ml
Bacteria/ml [17, 22]: 3.2 × 10^5 Bacteria/ml
Bacteria/ml [17, 23]: 4.8 × 10^4 Bacteria/ml
Bacteria/ml [17, 24]: 1.5 × 10^5 Bacteria/ml
Bacteria/ml [17, 25]: 1.4 × 10^4 Bacteria/ml
Bacteria/ml [17, 26]: 4.0 × 10^3 Bacteria/ml
Bacteria/ml [17, 27]: 1.7 × 10^3 Bacteria/ml
Bacteria/ml [17, 28]: 1.5 × 10^5 Bacteria/ml
Bacteria/ml [17, 29]: 1.3 × 10^5 Bacteria/ml
Bacteria/ml [17, 30]: 4.9 × 10^4 Bacteria/ml
Bacteria/ml [17, 31]: 5.7 × 10^4 Bacteria/ml
Bacteria/ml [17, 32]: 9.5 × 10^4 Bacteria/ml
Bacteria/ml [17, 33]: 1.1 × 10^5 Bacteria/ml
Bacteria/ml [17, 34]: 30 Bacteria/ml
Bacteria/ml [17, 35]: 190 Bacteria/ml
MIC Zn(II) [7, 36]: 200 ppm
MIC Zn(II) [8, 36]: >200 ppm and <200 ppm
viable free-living microorganisms [18]: 5.8 × 10^8 cells/ml
viable biofilm microorganisms ([19]; 5% semisynth. MWF): 27 cells/cm^2
viable biofilm microorganisms ([19]; 5% synthetic MWF): 1.4 × 10^5 cells/cm^2
viable biofilm microorganisms ([19]; 100% TSB): 3.3 × 10^4 cells/cm^2
MIC Zn(II) [9, 36]: >200 ppm and <200 ppm
